US8455469B2, “Use of norgestimate as a selective inhibitor of TRPC3, TRPC6 and TRPC7 ion channels” (Sanofi, priority 2007, dated 2013)

Columns and labels:
TRPC5 [1] = biological target: T1, TRPC5 (Homo sapiens, UniProt Q9UL62); test: Whole-cell patch clamp, AlF4- activated TRPC5 HEK293 cells; assay type: cell-based; details: 10 μM 2-APB, used for background calculation
T1 construct: expressed in transfected cells; host or cells: HEK293 FITR (inducible expression)
T1 sequence (Q9UL62 1-973): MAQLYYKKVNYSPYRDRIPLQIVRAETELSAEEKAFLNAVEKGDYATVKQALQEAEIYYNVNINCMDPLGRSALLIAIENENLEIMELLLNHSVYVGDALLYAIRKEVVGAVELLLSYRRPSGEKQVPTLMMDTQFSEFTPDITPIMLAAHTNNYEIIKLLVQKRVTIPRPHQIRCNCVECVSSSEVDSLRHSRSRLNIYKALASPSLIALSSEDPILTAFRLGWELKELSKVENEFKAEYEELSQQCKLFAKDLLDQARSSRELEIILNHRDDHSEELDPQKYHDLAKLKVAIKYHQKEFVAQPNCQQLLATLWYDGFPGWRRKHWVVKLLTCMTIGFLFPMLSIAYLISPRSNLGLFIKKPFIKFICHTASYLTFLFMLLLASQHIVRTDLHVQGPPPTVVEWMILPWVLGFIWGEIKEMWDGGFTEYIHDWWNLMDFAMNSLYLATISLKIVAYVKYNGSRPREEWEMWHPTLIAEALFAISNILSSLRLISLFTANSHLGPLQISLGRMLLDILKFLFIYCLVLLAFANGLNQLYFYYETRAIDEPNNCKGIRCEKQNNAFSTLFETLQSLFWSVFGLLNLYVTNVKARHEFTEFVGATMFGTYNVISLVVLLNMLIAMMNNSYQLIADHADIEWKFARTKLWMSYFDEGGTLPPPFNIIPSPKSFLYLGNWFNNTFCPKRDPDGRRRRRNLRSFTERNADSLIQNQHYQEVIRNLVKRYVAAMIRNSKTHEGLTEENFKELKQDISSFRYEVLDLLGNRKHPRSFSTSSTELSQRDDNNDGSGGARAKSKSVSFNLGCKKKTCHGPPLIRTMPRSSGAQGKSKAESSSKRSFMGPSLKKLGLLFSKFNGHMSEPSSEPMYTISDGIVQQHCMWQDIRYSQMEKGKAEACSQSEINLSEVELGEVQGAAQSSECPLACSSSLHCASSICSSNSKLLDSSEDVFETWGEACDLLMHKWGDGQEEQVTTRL
Protocol: Channels were indirectly excited with the same stimulus for better comparability of the norgestimate effect. Aluminium tetrafluoride (AIF^4−) applied intracellularly via the patch pipette activates G-proteins by mimicking GTP (Sternweis & Gilman, 1982; Bigay et al., 1987).
Since these channels are potentiated by micromolar La^3+ concentrations (Jung et al., 2003), 2-aminoethoxydiphenyl borate (2-APB), a characterized TRPC5 blocker (Xu et al., 2005) was used instead.
(§1) Effect of 10 μM norgestimate (NG) on whole-cell currents evoked by AlF4^− infusion into induced TRPC6— (A) and TRPC5 HEK 293 (B) cells. Whole cell currents recorded at −70 mV (left panels) and the corresponding current-voltage (I-V) relationships are shown (right panels). […] The curves were obtained during voltage ramps from −100 to +80 mV. (C) Statistical analysis of the norgestimate effect on TRPC5— and TRPC6-mediated currents.

TRPC6 = biological target: T2, TRPC6 (Homo sapiens, UniProt Q9Y210); test: Whole-cell patch clamp, AlF4- activated TRPC6 HEK293 cells; assay type: cell-based; details: 10 μM La3+, used for background calculation
T2 construct: expressed in transfected cells; host or cells: HEK293 (inducible expression)
T2 sequence (Q9Y210 1-931): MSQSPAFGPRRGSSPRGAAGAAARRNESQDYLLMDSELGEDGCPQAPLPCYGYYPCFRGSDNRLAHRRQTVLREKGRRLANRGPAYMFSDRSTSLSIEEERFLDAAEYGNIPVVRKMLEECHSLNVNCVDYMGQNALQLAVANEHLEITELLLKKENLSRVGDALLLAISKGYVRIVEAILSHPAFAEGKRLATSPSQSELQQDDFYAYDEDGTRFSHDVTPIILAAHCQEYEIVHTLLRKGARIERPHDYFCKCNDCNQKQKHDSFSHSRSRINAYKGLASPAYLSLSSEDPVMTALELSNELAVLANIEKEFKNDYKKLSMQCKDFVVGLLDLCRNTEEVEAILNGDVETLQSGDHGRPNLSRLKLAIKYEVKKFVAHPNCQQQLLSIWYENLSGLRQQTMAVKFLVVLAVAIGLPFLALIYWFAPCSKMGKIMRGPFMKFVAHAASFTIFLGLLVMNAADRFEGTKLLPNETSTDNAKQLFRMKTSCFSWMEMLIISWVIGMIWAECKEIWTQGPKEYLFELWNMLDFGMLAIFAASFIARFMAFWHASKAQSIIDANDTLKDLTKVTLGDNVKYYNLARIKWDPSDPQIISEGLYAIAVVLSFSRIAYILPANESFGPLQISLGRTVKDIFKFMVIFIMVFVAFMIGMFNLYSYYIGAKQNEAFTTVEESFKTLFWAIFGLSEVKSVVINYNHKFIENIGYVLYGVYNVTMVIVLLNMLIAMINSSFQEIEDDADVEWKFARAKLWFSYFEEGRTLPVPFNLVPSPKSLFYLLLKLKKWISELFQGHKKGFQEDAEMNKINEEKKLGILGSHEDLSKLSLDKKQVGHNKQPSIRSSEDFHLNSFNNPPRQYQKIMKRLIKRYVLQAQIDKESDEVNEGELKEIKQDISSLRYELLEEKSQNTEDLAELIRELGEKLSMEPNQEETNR
Description: Inhibition of TRPC6- and TRPC5-mediated Ca^2+ -influx by norgestimate monitored in fluorometric experiments with cell populations was validated and compared with whole-cell patch clamp recordings of single cells. Channels were indirectly excited with the same stimulus for better comparability of the norgestimate effect. Aluminium tetrafluoride (AIF^4−) applied intracellularly via the patch pipette activates G-proteins by mimicking GTP (Sternweis & Gilman, 1982; Bigay et al., 1987). Subsequently TRPC channels are stimulated and mediate non-specific cationic currents (FIG. 3 A, B) When 10 μM norgestimate were applied to activated TRPC6 channels, 89.9 ±3.1% (n=15) of the current measured at resting membrane potential was blocked. This inhibition was reversible as current amplitude increased after norgestimate wash out (FIG. 3 A).
as §1, with “currents. 10 μM norgestimate inhibit 25.9±5.7% (n=20) of TRPC5-mediated currents and 89.9±3.1% (n=15) of TRPC6-mediated currents (P<0.001, Wilcoxon test, two-sided).” for “currents.”

TRPC5 [2] = biological target: T1, TRPC5; details: micromolar concentrations (Jung et al., 2003); cited from earlier work

Row | block of TRPC5 channel (TRPC5 [1]) | Structure (SMILES) | block of TRPC6 current (TRPC6) | block of TRPC6 current (TRPC6; listed as La^3+) | effect of micromolar La3+ concentrations on TRPC5 channels (TRPC5 [2])
1 | completely and reversibly blocked | NCCOB(c1ccccc1)c1ccccc1 [2-APB, 2-aminoethoxydiphenyl borate] |  |  | 
2 |  | [La] [lanthanum] | complete and reversible | completely blocked | potentiated
